Target: T1, AKT1 (Homo sapiens, UniProt P31749)
T1 construct: purchased Upstate 14-276
Test: HTS ATP-utilizing enzyme assay, off-chip mobility-shift (Caliper HTS 250)
Format: biochemical
Conditions: kinase named = inhibitory activity/selectivity; test compound 10 μM; active = greater than three-sigma from mean
Description: The following procedures describe the reagent and plate preparation for a HTS of an ATP-utilizing enzyme, such as a protein kinase, run in an off-chip mobility-shift assay format. The following provides an HTS protocol for running a protein kinase HTS screen on a Caliper HTS 250 microfluidics system. The following parameters are dependent on the protein kinase used and can be determined by one skilled in the art as part of a typical assay development process. For example, the peptide substrate used can be identified from the current literature, by screening a peptide library of potential protein kinase substrates, or by other applicable means accepted in the field.
The following table provides typical screen assay parameters appropriate for a Caliper HTS 250 microfluidics system used to assay AKT1. Parameters used to assay other protein kinases can be determined by one skilled in the art.
Assays to determine the kinase inhibitory activity of chemical entities of the present disclosure were performed using a Caliper HTS 250 microfluidics device, Greiner U-bottom assay plates, a Multidrop for transfer of reagents, and Biomek FX (AMNCBM03) software. Initially, 2.4 μL of a 1 mM solution of a test compound in 100% DMSO was added to a well of the Greiner U-bottom plate. A single Greiner U-bottom plate having 24×16 wells could include multiple test compounds. […] Using the Biomek FX, 10 μL of 0.5 M EDTA was added by the span-8 to wells, indicated as 100% Control and 2.4 μL of 100% DMSO was added by the span-8 to wells, indicated as 0% Control. […] The total reaction volume in each well was 25 μL, and the concentration of the test compound was 10 μM. The assay plate was incubated for 2.5 hrs at 20° C. to 22° C. […] The inhibition of the ATP-utilizing enzyme, such as a particular protein kinase, was determined by measuring the ratio of the peptide substrate to phosphorylated product for each well of the assay plate using the Caliper HTS 250 system.
The use of three-sigma statistical limits represents a conservative method for declaring potential hits among targets. The three-sigma activity, as well as the mean population activity, can be different for each target enzyme.
Each chemical entity listed in Table 2 was tested for protein kinase inhibitory activity according to the biological assays and definitions of protein kinase inhibitory activity as described herein.

T1 sequence (P31749 whole entry): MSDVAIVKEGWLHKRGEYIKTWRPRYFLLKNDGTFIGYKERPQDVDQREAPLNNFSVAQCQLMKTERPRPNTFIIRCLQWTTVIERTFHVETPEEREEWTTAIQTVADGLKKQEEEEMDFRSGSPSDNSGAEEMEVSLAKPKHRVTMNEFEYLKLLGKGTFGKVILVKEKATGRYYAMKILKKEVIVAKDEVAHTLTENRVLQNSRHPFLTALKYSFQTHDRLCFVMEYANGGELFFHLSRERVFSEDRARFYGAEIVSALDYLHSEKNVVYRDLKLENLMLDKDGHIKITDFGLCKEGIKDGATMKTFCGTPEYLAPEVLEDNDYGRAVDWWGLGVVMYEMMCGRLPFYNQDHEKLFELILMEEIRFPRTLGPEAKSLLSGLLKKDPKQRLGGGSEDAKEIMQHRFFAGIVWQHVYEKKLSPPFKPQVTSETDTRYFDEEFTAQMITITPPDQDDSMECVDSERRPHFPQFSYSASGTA

| Compound | Activity |
| --- | --- |
| O=C(NCCO)C1CCCN(C(=O)CCN(C(=O)c2cccs2)c2nc(-c3cc4ccccc4o3)cs2)C1 (stereo not drawn) [1-(3-(N-(4-(benzofuran-2-yl)thiazol-2-yl)thiophene-2-carboxamido)propanoyl)-N-(2-hydroxyethyl)piperidine-3-carboxamide] | AKT1 |
| NC(=O)C1CCCCN1C(=O)CCN(C(=O)c1cccs1)c1nc(-c2cc3ccccc3o2)cs1 (stereo not drawn) [1-(3-(N-(4-(benzofuran-2-yl)thiazol-2-yl)thiophene-2-carboxamido)propanoyl)piperidine-2-carboxamide] | AKT1 |
| NC(=O)C1CCCN(C(=O)CCN(C(=O)c2cccs2)c2nc(-c3cc4ccccc4o3)cs2)C1 (stereo not drawn) [1-(3-(N-(4-(benzofuran-2-yl)thiazol-2-yl)thiophene-2-carboxamido)propanoyl)piperidine-3-carboxamide] | AKT1 |
| O=C(O)C1CCCN(C(=O)CCN(C(=O)c2cccs2)c2nc(-c3cc4ccccc4o3)cs2)C1 (stereo not drawn) [1-(3-(N-(4-(benzofuran-2-yl)thiazol-2-yl)thiophene-2-carboxamido)propanoyl)piperidine-3-carboxylic acid] | AKT1 |
| NC(=O)C1CCCN1C(=O)CCN(C(=O)c1cccs1)c1nc(-c2cc3ccccc3o2)cs1 (stereo not drawn) [1-(3-(N-(4-(benzofuran-2-yl)thiazol-2-yl)thiophene-2-carboxamido)propanoyl)pyrrolidine-2-carboxamide] | AKT1 |
| CCN(CC)C(=O)C1CCCN(CCCN(C(=O)c2cccs2)c2nc(-c3cc4ccccc4o3)cs2)C1 (stereo not drawn) [1-(3-(N-(4-(benzofuran-2-yl)thiazol-2-yl)thiophene-2-carboxamido)propyl)-N,N-diethylpiperidine-3-carboxamide] | AKT1 |
| CNC(=O)C1CCN(CCCN(C(=O)c2cccs2)c2nc(-c3cc4ccccc4o3)cs2)CC1 [1-(3-(N-(4-(benzofuran-2-yl)thiazol-2-yl)thiophene-2-carboxamido)propyl)-N-methylpiperidine-4-carboxamide] | AKT1 |
| NC(=O)C1CCCCN1CCCN(C(=O)c1cccs1)c1nc(-c2cc3ccccc3o2)cs1 (stereo not drawn) [1-(3-(N-(4-(benzofuran-2-yl)thiazol-2-yl)thiophene-2-carboxamido)propyl)piperidine-2-carboxamide] | AKT1 |
| NC(=O)C1CCCN(CCCN(C(=O)c2cccs2)c2nc(-c3cc4ccccc4o3)cs2)C1 (stereo not drawn) [1-(3-(N-(4-(benzofuran-2-yl)thiazol-2-yl)thiophene-2-carboxamido)propyl)piperidine-3-carboxamide] | AKT1 |
| NC(=O)C1CCN(CCCN(C(=O)c2cccs2)c2nc(-c3cc4ccccc4o3)cs2)CC1 [1-(3-(N-(4-(benzofuran-2-yl)thiazol-2-yl)thiophene-2-carboxamido)propyl)piperidine-4-carboxamide] | AKT1 |
| NC(=O)C1CCCN1CCCN(C(=O)c1cccs1)c1nc(-c2cc3ccccc3o2)cs1 (stereo not drawn) [1-(3-(N-(4-(benzofuran-2-yl)thiazol-2-yl)thiophene-2-carboxamido)propyl)pyrrolidine-2-carboxamide] | AKT1 |
| O=C(NCCO)C1CCN(C(=O)CCCN(C(=O)c2cccs2)c2nc(-c3cc4ccccc4o3)cs2)CC1 [1-(4-(N-(4-(benzofuran-2-yl)thiazol-2-yl)thiophene-2-carboxamido)butanoyl)-N-(2-hydroxyethyl)piperidine-4-carboxamide] | AKT1 |
| CNC(=O)C1CCN(C(=O)CCCN(C(=O)c2cccs2)c2nc(-c3cc4ccccc4o3)cs2)CC1 [1-(4-(N-(4-(benzofuran-2-yl)thiazol-2-yl)thiophene-2-carboxamido)butanoyl)-N-methylpiperidine-4-carboxamide] | AKT1 |
| NC(=O)C1CCCN(C(=O)CCCN(C(=O)c2cccs2)c2nc(-c3cc4ccccc4o3)cs2)C1 (stereo not drawn) [1-(4-(N-(4-(benzofuran-2-yl)thiazol-2-yl)thiophene-2-carboxamido)butanoyl)piperidine-3-carboxamide] | AKT1 |
| NC(=O)C1CCN(C(=O)CCCN(C(=O)c2cccs2)c2nc(-c3cc4ccccc4o3)cs2)CC1 [1-(4-(N-(4-(benzofuran-2-yl)thiazol-2-yl)thiophene-2-carboxamido)butanoyl)piperidine-4-carboxamide] | AKT1 |
| NC(=O)C1CCCN1C(=O)CCCN(C(=O)c1cccs1)c1nc(-c2cc3ccccc3o2)cs1 (stereo not drawn) [1-(4-(N-(4-(benzofuran-2-yl)thiazol-2-yl)thiophene-2-carboxamido)butanoyl)pyrrolidine-2-carboxamide] | AKT1 |
| CC(=O)N1CCC(C(=O)NCCCN(C(=O)c2cccs2)c2nc(-c3cc4ccccc4o3)cs2)CC1 [1-acetyl-N-(3-(N-(4-(benzofuran-2-yl)thiazol-2-yl)thiophene-2-carboxamido)propyl)piperidine-4-carboxamide] | AKT1 |
| Cn1cccc1C(=O)N(CCCN1CCCC1=O)c1nc(-c2cc(-c3ccccc3)no2)cs1 [1-methyl-N-(3-(2-oxopyrrolidin-1-yl)propyl)-N-(4-(3-phenylisoxazol-5-yl)thiazol-2-yl)-1H-pyrrole-2-carboxamide] | AKT1 |
| Cn1cccc1C(=O)N(CCCN1CCOCC1)c1nc(-c2cc(-c3ccccc3)no2)cs1 [1-methyl-N-(3-morpholinopropyl)-N-(4-(3-phenylisoxazol-5-yl)thiazol-2-yl)-1H-pyrrole-2-carboxamide] | AKT1 |
| O=C(O)COc1cccc(-c2csc(N(CCCN3CCOCC3)C(=O)c3cccs3)n2)c1 [2-(3-(2-(N-(3-morpholinopropyl)thiophene-2-carboxamido)thiazol-4-yl)phenoxy)acetic acid] | AKT1 |
| O=C(O)CNC(=O)c1ccc(-c2csc(N(CCCN3CCOCC3)C(=O)c3cccs3)n2)cc1 [2-(4-(2-(N-(3-morpholinopropyl)thiophene-2-carboxamido)thiazol-4-yl)benzamido)acetic acid] | AKT1 |
| O=C(O)COc1ccc(-c2csc(N(CCCN3CCOCC3)C(=O)c3cccs3)n2)cc1 [2-(4-(2-(N-(3-morpholinopropyl)thiophene-2-carboxamido)thiazol-4-yl)phenoxy)acetic acid] | AKT1 |
| O=C(O)Cc1ccc(-c2csc(N(CCCN3CCOCC3)C(=O)c3cccs3)n2)s1 [2-(5-(2-(N-(3-morpholinopropyl)thiophene-2-carboxamido)thiazol-4-yl)thiophen-2-yl)acetic acid] | AKT1 |

Continued, values first:

| Activity | Compound |
| --- | --- |
| AKT1 | O=C(Nc1nncs1)c1csc(N(CCCN2CCOCC2)C(=O)c2cccs2)n1 [2-(N-(3-morpholinopropyl)thiophene-2-carboxamido)-N-(1,3,4-thiadiazol-2-yl)thiazole-4-carboxamide] |
| AKT1 | O=C(Nc1nccs1)c1csc(N(CCCN2CCOCC2)C(=O)c2cccs2)n1 [2-(N-(3-morpholinopropyl)thiophene-2-carboxamido)-N-(thiazol-2-yl)thiazole-4-carboxamide] |
| AKT1 | COc1ccc(-c2csc(N(CCCN3CCOCC3)C(=O)c3ccccc3F)n2)cc1 [2-fluoro-N-(4-(4-methoxyphenyl)thiazol-2-yl)-N-(3-morpholinopropyl)benzamide] |
| AKT1 | O=C(O)c1cccc(-c2csc(N(CCCN3CCOCC3)C(=O)c3cccs3)n2)c1 [3-(2-(N-(3-morpholinopropyl)thiophene-2-carboxamido)thiazol-4-yl)benzoic acid] |
| AKT1 | O=C(O)CCOc1cccc(-c2csc(N(CCCN3CCOCC3)C(=O)c3cccs3)n2)c1 [3-(3-(2-(N-(3-morpholinopropyl)thiophene-2-carboxamido)thiazol-4-yl)phenoxy)propanoic acid] |
| AKT1 | O=C(O)CCOc1ccc(-c2csc(N(CCCN3CCOCC3)C(=O)c3cccs3)n2)cc1 [3-(4-(2-(N-(3-morpholinopropyl)thiophene-2-carboxamido)thiazol-4-yl)phenoxy)propanoic acid] |
| AKT1 | COc1ccc(-c2csc(N(CCCN3CCOCC3)C(=O)c3cccc(F)c3)n2)cc1 [3-fluoro-N-(4-(4-methoxyphenyl)thiazol-2-yl)-N-(3-morpholinopropyl)benzamide] |
| AKT1 | Cc1cccc(C(=O)N(CCCN2CCOCC2)c2nc(-c3ccccc3)cs2)c1 [3-methyl-N-(3-morpholinopropyl)-N-(4-phenylthiazol-2-yl)benzamide] |
| AKT1 | O=C(O)c1ccc(-c2csc(N(CCCN3CCOCC3)C(=O)c3cccs3)n2)cc1 [4-(2-(N-(3-morpholinopropyl)thiophene-2-carboxamido)thiazol-4-yl)benzoic acid] |
| AKT1 | COc1ccc(-c2csc(N(CCCN3CCOCC3)C(=O)c3ccc(Cl)cc3)n2)cc1 [4-chloro-N-(4-(4-methoxyphenyl)thiazol-2-yl)-N-(3-morpholinopropyl)benzamide] |
